According to patent US5618726A, “Biodegradable azo dyes” (priority 1994, dated 1997):

Assays:
[1] = target: T1, horseradish peroxidase type II (Armoracia rusticana, UniProt P00433); experiment: Oxidation of azo dyes by horseradish peroxidase preparation; format: biochemical; details: pH 8, 37° C., H2O2
T1 sequence (P00433 31-338): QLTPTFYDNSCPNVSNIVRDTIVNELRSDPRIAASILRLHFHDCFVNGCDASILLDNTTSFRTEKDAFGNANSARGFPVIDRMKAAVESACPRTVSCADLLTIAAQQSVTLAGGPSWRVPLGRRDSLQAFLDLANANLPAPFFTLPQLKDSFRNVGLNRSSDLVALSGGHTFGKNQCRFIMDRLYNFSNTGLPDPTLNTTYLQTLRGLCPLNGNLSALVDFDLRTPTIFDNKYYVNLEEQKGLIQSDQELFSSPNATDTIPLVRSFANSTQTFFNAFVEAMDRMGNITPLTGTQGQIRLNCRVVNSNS
Description: The reaction was started with the addition of 100 μl of 50 mM H2 O2 and was followed for 1 min at 37° C. Controls were run with no addition of H2 O2 or with the addition of the hemeperoxidase inhibitor KCN (final concentration 25 μM).

[2] = test system: S. chromofuscus A11 extracellular peroxidase; experiment: Oxidation of azo dyes by S. chromofuscus A11 crude enzyme preparation; format: biochemical, Streptomyces chromofuscus A11; details: pH 8, 37° C., H2O2
How it was run: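 Enzyme from 48 h S. chromofuscus A11 culture supernatant, concentrated, ammonium sulfate-precipitated, dialyzed in 20 mM HEPES pH 8; yellow Sephadex G-25 fraction used. Reaction started with 100 μl 50 mM H2O2, followed 1 min at 37° C; controls without H2O2 or with 25 μM KCN.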

[3] = test system: Mn(II)-peroxidase; experiment: Oxidation of dyes by P. chrysosporium Mn(II)-peroxidase; format: biochemical, Phanerochaete chrysosporium; details: crude enzyme, conditions specific for Mn(II)-peroxidase
[4] = test system: ligninase; experiment: Oxidation of dyes by P. chrysosporium ligninase (crude preparation); format: biochemical, Phanerochaete chrysosporium; details: for Oxidation rate of azo dyes, P. chrysosporium Ligninase: crude enzyme, conditions specific for ligninase
How it was run: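 Crude P. chrysosporium ligninase oxidation of dyes, assayed by a previously reported method; conditions as for acid yellow 9, readings every 30 s for up to 15 minutes.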

[5] = test system: S. diastaticus A12; format: cell-based; details: streptomyces diastaticus a12 culture, 336 h
Excerpt: (§1) Microbiol., 1984, 130:2905-2913.
(§2) Replicate sterile controls also were run in each experiment.

[6] = test system: S. diastaticus A13; format: cell-based; details: streptomyces diastaticus a13 culture, 336 h
Excerpt: as §1, §2

[7] = test system: S. rochei A10; format: cell-based; details: streptomyces rochei a10 culture, 336 h
Excerpt: as §1, §2

[8] = test system: S. chromofuscus A11; details: for Degradation (%) after Streptomyces cultivation, strain A11: streptomyces chromofuscus a11 culture, 336 h; for Decolorization of growth medium by S. chromofuscus A11: both 50 and 100 ppm
Description: as §1, §2
The Streptomyces were grown on the same media and under the same conditions as previously described. […] Thus, the spectrophotometric assays for substrates 1-12 were carried out at their specific isobastic points. Degradation was calculated as percent of substrates removed from culture broth, considering the evaporation factor (around 10%).

[9] = test system: Phanerochaete chrysosporium; experiment: Substrate removal / decolorization by P. chrysosporium culture; format: cell-based; details: for % Decolorization, P. chrysosporium: 14 days
Description: Environ. Microbiol., 1981, 42:290-296), with the addition of 75 mg adenine (6-aminopurine) and 27 mg L-phenylalanine-per-liter. This addition accelerated the growth of the fungus without inhibiting ligninase activity. […] […] Cultures were incubated at 37° C. for 7 to 15 days with shaking (250 rpm). Solid agar media were also employed.

[10] = beginning concentration 100 ppm
[11] = beginning concentration 150 ppm
[12] = beginning concentration 200 ppm
[13] = beginning concentration 300 ppm

| Compound | Oxidation rate of azo dyes, Horseradish peroxidase [1] | Oxidation rate of azo dyes, S. chromofuscus peroxidase [2] | Oxidation rate of azo dyes, P. chrysosporium Mn-peroxidase [3] | Oxidation rate of azo dyes, P. chrysosporium Ligninase [4] | Oxidation / decolorization by ligninase ([4]; pH3, 0.2 mM hydrogen peroxide, 15-minute incubation) | Degradation (%) after Streptomyces cultivation, strain A12 [5] | Degradation (%) after Streptomyces cultivation, strain A13 [6] | Degradation (%) after Streptomyces cultivation, strain A10 [7] | Degradation (%) after Streptomyces cultivation, strain A11 [8] | Degradation by Phanerochaete fungus ([9]; growth period of seven days, starting dye 150-200 ppm (FIG. 3), 10080 min) | % Decolorization, P. chrysosporium ([9]; initial concn 150 ppm) | % Decolorization, P. chrysosporium ([9]; initial concn 300 ppm) | Concentration of substrate after ten days cultivation with P. chrysosporium [9, 10] | Concentration of substrate after ten days cultivation with P. chrysosporium [9, 11] | Concentration of substrate after ten days cultivation with P. chrysosporium [9, 12] | Concentration of substrate after ten days cultivation with P. chrysosporium [9, 13] | Decolorization of growth medium by S. chromofuscus A11 [8] |
| --- | --- | --- | --- | --- | --- | --- | --- | --- | --- | --- | --- | --- | --- | --- | --- | --- | --- |
| COc1cc(N=Nc2ccc(S(=O)(=O)O)cc2)ccc1O [compound 2] | 18.19 μmoles per minute per ml | 3.68 μmoles per minute per ml | 8.19 μmoles per minute per ml | 0.72 μmoles per minute per ml | not detected | 43% | 18% | 77% | 73% | 90% | 97% | 94% | 2.493 ppm | 6.350 ppm | 10.068 ppm | 7.318 ppm | – |
| Cc1cc(N=Nc2ccc(S(=O)(=O)O)cc2)cc(C)c1O [compound 3] | 30.68 μmoles per minute per ml | 17.20 μmoles per minute per ml | 16.37 μmoles per minute per ml | 0.42 μmoles per minute per ml | – | 39% | 10% | 68% | 73% | – | 96% | 97% | 0.358 ppm | 1.223 ppm | 1.894 ppm | 114.772 ppm | significantly decolorized |
| COc1cc(N=Nc2ccc(S(=O)(=O)O)cc2)cc(OC)c1O [compound 4] | 27.04 μmoles per minute per ml | 15.19 μmoles per minute per ml | 14.33 μmoles per minute per ml | 0.22 μmoles per minute per ml | – | 39% | 8% | 79% | 83% | – | 93% | 92% | 1.637 ppm | 3.763 ppm | 4.218 ppm | 16.323 ppm | significantly decolorized |
| CCC(C)c1cc(N=Nc2ccc(S(=O)(=O)O)cc2)ccc1O (stereo not drawn) [compound 10] | 0.35 μmoles per minute per ml | 0.78 μmoles per minute per ml | 2.86 μmoles per minute per ml | 0.51 μmoles per minute per ml | – | 7% | 6% | 11% | 16% | – | 90% | 92% | 8.135 ppm | 15.279 ppm | 46.588 ppm | 42.897 ppm | significantly decolorized |

More lines, main results first:

| Oxidation rate of azo dyes, Horseradish peroxidase [1] | Oxidation rate of azo dyes, S. chromofuscus peroxidase [2] | Oxidation rate of azo dyes, P. chrysosporium Mn-peroxidase [3] | Oxidation rate of azo dyes, P. chrysosporium Ligninase [4] | Oxidation / decolorization by ligninase ([4]; pH3, 0.2 mM hydrogen peroxide, 15-minute incubation) | Degradation (%) after Streptomyces cultivation, strain A12 [5] | Degradation (%) after Streptomyces cultivation, strain A13 [6] | Degradation (%) after Streptomyces cultivation, strain A10 [7] | Degradation (%) after Streptomyces cultivation, strain A11 [8] | Degradation by Phanerochaete fungus ([9]; growth period of seven days, starting dye 150-200 ppm (FIG. 3), 10080 min) | % Decolorization, P. chrysosporium ([9]; initial concn 150 ppm) | % Decolorization, P. chrysosporium ([9]; initial concn 300 ppm) | Compound | Concentration of substrate after ten days cultivation with P. chrysosporium [9, 10] | Concentration of substrate after ten days cultivation with P. chrysosporium [9, 11] | Concentration of substrate after ten days cultivation with P. chrysosporium [9, 12] | Concentration of substrate after ten days cultivation with P. chrysosporium [9, 13] | Decolorization of growth medium by S. chromofuscus A11 [8] |
| --- | --- | --- | --- | --- | --- | --- | --- | --- | --- | --- | --- | --- | --- | --- | --- | --- | --- |
| 11.94 μmoles per minute per ml | 2.00 μmoles per minute per ml | 3.54 μmoles per minute per ml | 0.00 μmoles per minute per ml | – | 3% | 8% | 9% | 20% | – | 90% | 87% | Cc1cc(N=Nc2ccc(S(=O)(=O)O)cc2)ccc1O [compound 5] | 6.084 ppm | 9.870 ppm | 14.500 ppm | 22.680 ppm | significantly decolorized |
| 0.10 μmoles per minute per ml | 0.13 μmoles per minute per ml | 0.26 μmoles per minute per ml | 0.88 μmoles per minute per ml | – | 1% | 1% | 2% | 5% | – | 92% | 88% | O=S(=O)(O)c1ccc(N=Nc2ccc(O)c(Cl)c2)cc1 [compound 13] | 7.734 ppm | 20.776 ppm | 28.216 ppm | 20.096 ppm | – |
